Where two headings read alike, the source gives them in different places.
How the values were obtained:
rats [1] = type: in vivo, rat; conditions: rats of the MAP/HR figures, 2×ED50, tail vein
rats [2] = assay: Pharmacological characteristics at equivalent doses (2×ED50) in rats; conditions: 2×ED50, tail vein; for Adverse reactions: Red urine (incidence): DMSO solution (DMSO alone 10/10); for Adverse reactions: Tremor (incidence): animals affected/animals; for Onset time: time of LORR
How it was run: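 Anesthesia onset, recorded as time of LORR, was measured after a 2×ED50 tail-vein injection (0.6 mL, 0.1 mL/s). Animals were male Sprague-Dawley rats of 250-300 g, n=8.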

rats [3] = conditions: continuous tail vein infusion at 2×MIR, LORR maintained 1 hour
Description: Pharmacological Effects of the Compounds on Continuous Infusion in Rats
Adult male Sprague-Dawley rats with body weight ranging from 250 to 300 gm were selected for continuous infusion test. […] Time to recovery of righting reflex from stopping infusion, and time to fully awake from stopping infusion were recorded.

rats [4] = type: in vivo, rat; conditions: rats of the MAP/HR figures, 2×ED50, tail vein; same value in min
How it was run: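 Hemodynamic stability judged from mean arterial pressure and heart rate, recorded at 15 s intervals over 30 min pre- and post-dose. Dosing was through a tail-vein indwelling catheter in rats carrying implanted aortic/ventricular catheters and ECG wires, operated ≥1 week earlier.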

rats [5] = system: rats
Description: Adult male Sprague-Dawley rats (250-300 g) were selected for the experiment. […] The anesthesia effects of the compounds were assessed in rats using a LORR assay and a period >30 s was considered as an indicator of general anesthesia. Then the up and down method was used to determine 50% effective dose (ED50). The drugs were administered through the tail vein of rats in a volume of 0.6 mL and at a rate of 0.1 mL/s.

rats [6] = assay: Loss of righting reflexes (LORR) assay in rats, ED50 by up and down method; type: in vivo, rat; conditions: tail vein, class symbols; for ED50: Rattus norvegicus
How it was run: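 ED50 obtained by up-and-down dosing, with righting-reflex loss over 30 s counted as general anesthesia. Compounds injected into the tail vein (0.1 mL/s) of male Sprague-Dawley rats weighing 250-300 g.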

SMILES	recovery time of the test animals' righting reflex (rats [1]) [s]	Righting reflex duration (rats [2]) [min]	Adverse reactions: Red urine (incidence) (rats [2])	Adverse reactions: Tremor (incidence) (rats [2])	Onset time (rats [2]) [min]	Onset time (rats [3]; Table E4) [min]	Recovery time after stopping infusion (rats [3]; Table E4) [min]	Types and incidence of adverse reactions (rats [3]; Table E4)	recovery time of the test animals' righting reflex (rats [4]) [min]	Approximate therapeutic index (rats [5])	Minimal lethal dose (rats [5]) [mg/kg]	ED50 (rats [6]) [mg/kg]	Adverse reactions: Euphoria (incidence) (rats [2])	Onset time (rats [3]; Table D4) [min]	Recovery time after stopping infusion (rats [3]; Table D4) [min]	Types and incidence of adverse reactions (rats [3]; Table D4)	Adverse reactions: Restlessness (incidence) (rats [2])	Sedation duration (mg/kg) (rats [2])	ED50 (mg/kg) (rats [6])
C#CC1(OC(=O)c2c(Cl)nc(Cl)n2[C@H](C)c2ccccc2)COC1 [Compound E148]	58	0.49 ± 0.38	urine (8/8)	(5/8), Red	0.75 ± 0.24	3 to 4	11 to 16	Myoclonus (2/6), Tremor (3/6)	0.97	>12	>10	0.5 to 1							
CC#CC(C)OC(=O)c1c(Cl)ncn1[C@H](C)c1ccccc1 (stereo partly drawn) [Compound E116]	92	1.18 ± 0.56	(8/8)		0.61 ± 0.23	3 to 4	11 to 15	Tremor (1/6), Tongue stretching (3/6)	1.53	>16	>10	0.5 to 1							
C=C=CC(C)OC(=O)c1cncn1[C@H](C)c1ccccc1 (stereo partly drawn) [Compound D22]	50	4.51 ± 1.63	urine (8/8)		0.24 ± 0.07				0.83	>11	>2	0.1 to 0.5	Euphoria (1/8), Red	3 to 4	14 to 18	Euphoria (2/6), Tremor (4/6)			
C#CC1(COC(=O)c2cncn2[C@H](C)c2ccccc2)CCC1 [Compound D10]	605	6.04 ± 2.27	(8/8)	Tremor (2/8), Red urine	0.14 ± 0.03				10.08	>12	>6	0.5 to 1		3 to 4	13 to 17	Tremor (6/6)			
C#CC1(OC(=O)c2cncn2[C@H](C)c2ccccc2)COC1 [Compound D3]	76	1.05 ± 0.29	urine (8/8)		0.19 ± 0.05				1.27	>10	>8	0.5 to 1		2 to 3	7 to 9	Restlessness (2/6), Tremor (3/6)	Restlessness (4/8), Red		
C=C=CC1(OC(=O)c2c(F)ncn2[C@H](C)c2ccccc2)CCC1 [Compound E64]	149	2.28 ± 1.28	urine (8/8)	(2/8), Red	0.31 ± 0.06	2 to 3	11 to 14	No	2.48	>40	>1.5	0.01 to 0.1							
C[C@H](c1ccccc1)n1c(Cl)nc(Cl)c1C(=O)OC1CSC1 [Compound E133]	138	2.10 ± 0.86	urine (8/8)	(4/8), Red	0.25 ± 0.10	3 to 4	9 to 12	Tremor (4/6)	2.30	>12	>10	0.5 to 1							
C=C=CC1(SC(=O)c2c(F)ncn2[C@H](C)c2ccccc2)CSC1 [Compound E90]	85	1.29 ± 0.64	urine (8/8)	(1/8), Red	0.50 ± 0.20	2 to 3	9 to 12	Tremor (2/6)	1.42	>30	>1.5	0.01 to 0.1							
C=CC(C)(C)OC(=O)c1c(F)ncn1[C@H](C)c1ccccc1 [Compound E32]	219	3.86 ± 1.13	urine (8/8)	(3/8), Red	0.30 ± 0.14	2 to 3	12 to 16	Tremor (2/6), Tongue stretching (3/6)	3.65	>30	>4							8.70 ± 2.07	B (B means that the measured ED50 is in the range of 0.10-0.50 mg/kg (excluding 0.10 mg/kg, including 0.50 mg/kg).)
